Values of other authors as cited in patent US20050096391A1 (priority 2003, published 2005).

Legend:
[1] = system: low-density lipoprotein (LDL)-cholesterol; conditions: compared with atorvastatin, simvastatin, pravastatin
[2] = oral
[3] = pH of 7.0

solubility in ethanol (ethanol)	solubility in methanol (methanol)	solubility in water (water)	bioavailability [2]	partition coefficient (octanol/water) [3]	SMILES	reductions in low-density lipoprotein (LDL)-cholesterol [1]
slightly soluble	sparingly soluble	sparingly soluble			CC(C)c1nc(N(C)S(C)(=O)=O)nc(-c2ccc(F)cc2)c1/C=C/[C@@H](O)C[C@@H](O)CC(=O)[O-].CC(C)c1nc(N(C)S(C)(=O)=O)nc(-c2ccc(F)cc2)c1/C=C/[C@@H](O)C[C@@H](O)CC(=O)[O-].[Ca+2] [Rosuvastatin calcium]	
			approximately 20%	0.13	CC(C)c1nc(N(C)S(C)(=O)=O)nc(-c2ccc(F)cc2)c1/C=C/[C@@H](O)C[C@@H](O)CC(=O)O [Rosuvastatin, (E)-7-[4-(4-fluorophenyl)-6 isopropyl-2-[methyl (methyl-sulfonyl)amino]pyrimidin-5-yl](3R,5S)-3,5-dihydroxyhept-6-enoic acid]	greater reductions in low-density lipoprotein (LDL)-cholesterol than atorvastatin, simvastatin, and pravastatin
